Read-outs that look alike come from different tables or passages of the source.
Target: collagenase A (ColA) (Clostridium perfringens, UniProt P43153)
Assay: biochemical
Parameters: species or system C. perfringens
Details: for Inhibition (%) on ColA: after 30 min of incubation
[1] = read-out: Inhibition(%) on ColA
[2] = 5 µM, mean ± SD of three replications
[3] = read-out: Inhibition (%) on ColA
[4] = 100 µM, preliminary screening (Table S1), * = compound precipitated due to low solubility

Sequence of collagenase A (ColA) (P43153 87-1104 limits assumed): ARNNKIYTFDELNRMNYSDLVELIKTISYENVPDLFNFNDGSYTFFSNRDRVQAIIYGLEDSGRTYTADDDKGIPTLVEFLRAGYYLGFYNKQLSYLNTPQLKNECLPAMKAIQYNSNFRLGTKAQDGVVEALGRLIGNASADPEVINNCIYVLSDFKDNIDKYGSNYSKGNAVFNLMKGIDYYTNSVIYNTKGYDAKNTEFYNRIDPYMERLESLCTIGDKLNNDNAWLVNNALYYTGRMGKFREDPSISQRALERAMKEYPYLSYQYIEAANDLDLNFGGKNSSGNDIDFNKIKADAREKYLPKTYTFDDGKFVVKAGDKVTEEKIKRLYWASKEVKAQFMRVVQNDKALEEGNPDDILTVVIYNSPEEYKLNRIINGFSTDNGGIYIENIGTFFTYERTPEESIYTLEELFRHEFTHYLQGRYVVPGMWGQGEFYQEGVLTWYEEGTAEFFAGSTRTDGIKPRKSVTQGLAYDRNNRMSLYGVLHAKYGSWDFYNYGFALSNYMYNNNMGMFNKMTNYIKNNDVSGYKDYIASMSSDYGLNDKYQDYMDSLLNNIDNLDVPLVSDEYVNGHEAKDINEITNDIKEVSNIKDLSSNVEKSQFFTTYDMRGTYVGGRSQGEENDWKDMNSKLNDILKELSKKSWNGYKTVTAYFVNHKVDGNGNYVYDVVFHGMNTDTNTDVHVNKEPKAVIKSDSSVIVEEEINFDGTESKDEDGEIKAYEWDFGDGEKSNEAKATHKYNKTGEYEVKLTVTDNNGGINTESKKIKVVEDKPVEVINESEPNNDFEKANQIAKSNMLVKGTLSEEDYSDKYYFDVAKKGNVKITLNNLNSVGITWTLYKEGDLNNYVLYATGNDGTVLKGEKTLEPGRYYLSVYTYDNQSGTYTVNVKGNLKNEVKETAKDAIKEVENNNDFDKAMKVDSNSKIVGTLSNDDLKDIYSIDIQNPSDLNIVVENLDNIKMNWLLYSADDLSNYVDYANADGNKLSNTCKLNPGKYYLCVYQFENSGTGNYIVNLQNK

Nc1ccc2c(c1N)C(=O)c1ccccc1C2=O [1,2-diaminoanthraquinone]
inhibition at 100 µM [1]: 4.3%

O=c1c(-c2ccc(O)cc2)coc2cc(O)cc(O)c12 [genistein]
inhibition at 100 µM [1]: -1.1%

CC(O)(P(=O)(O)O)P(=O)(O)O [etidronic acid, reference compound]
inhibition at 100 µM [1]: 23%

COc1cc(-c2oc3cc(O)cc(O)c3c(=O)c2O)ccc1O [isorhamnetin]
inhibition at 100 µM [1]: 19.9%

COc1ccc2oc(-c3ccccc3)c(O)c(=O)c2c1 [6-methoxyflavonol]
inhibition at 100 µM [1]: 10.7%

COc1cc(/C=C/C(=O)CC(=O)/C=C/c2ccc(O)c(OC)c2)ccc1O [Curcumin, curcumin]
inhibitory effect on ColA (in words): very potent ColA inhibitor
Inhibition (%) on ColA [2]: Almost complete inhibition
inhibition at 1 µM [3]: -10 ± 3.9%
inhibition at 5 µM [3]: 101.8 ± 0.6%
inhibition at 10 µM [3]: 102.5 ± 0.8%
inhibition at 50 µM [3]: 101.5 ± 0.4%
inhibition at 100 µM [3]: 101.8 ± 0.7%
inhibition at 100 µM [1]: 102%

S-(acetamidomethyl)-L-cysteine
Inhibition (%) on ColA [4]: -15.2%

O=C1c2c(O)cccc2C([C@@H]2O[C@H](CO)[C@@H](O)[C@H](O)[C@H]2O)c2cc(CO)cc(O)c21 (stereo partly drawn) [aloin]
inhibition at 100 µM [1]: 4.4%

O=c1ccc2cc(O)ccc2o1 [6-hydroxycoumarin]
inhibition at 100 µM [1]: 12.5%

myricitrin
inhibitory effect on ColA (in words): low inhibitory effect

C[C@@H]1CC[C@H]2[C@@H](C)C(=O)O[C@@H]3O[C@@]4(C)CC[C@@H]1[C@]32OO4 [artemisinin, reference compound]
inhibition at 100 µM [1]: 5.6%

COc1ccc2[nH]c3c(c2c1)CCNC3C(=O)O (stereo not drawn) [6-methoxy-1,2,3,4-tetrahydro-9H-pyrido [3,4-b]indole-1-carboxylic acid]
inhibition at 1 µM [3]: -19.9 ± 2.7%
inhibition at 5 µM [3]: -1.3 ± 2.1%
inhibition at 10 µM [3]: -5.2 ± 0.7%
inhibition at 50 µM [3]: 2.8 ± 1.3%
inhibition at 100 µM [3]: 19.6 ± 3.9%
inhibition at 100 µM [1]: 18.8%

O=c1ccc2ccc(O)cc2o1 [umbelliferone]
inhibition at 100 µM [1]: -10.2%

O=c1cc(-c2ccccc2)oc2cc(O)cc(O)c12 [chrysin]
inhibitory effect on ColA (in words): low inhibitory effects
inhibition at 100 µM [1]: -3.4%

O=c1oc(-c2ccccc2)cc2ccccc12 [3-phenyl-1H-2-benzopyran-1-one]
inhibition at 100 µM [1]: 0.2%

O=S(=O)(O)CCS [sodium 2-mercaptoethanesulfonate, reference compound]
inhibition at 100 µM [1]: 20.6%

CC(=O)c1c(O)c(C)c(O)c2c1OC1=CC(=O)C(C(C)=O)C(=O)C12C (stereo not drawn) [usnic acid]
inhibition at 100 µM [1]: 3.9%

O=c1c(O)c(-c2ccccc2)oc2ccc(O)cc12 [3,6-dihydroxyflavone]
inhibitory effect on ColA (in words): low inhibitory effects
inhibition at 100 µM [1]: 2.7%

CC(=O)NCCCS(=O)(=O)O [acamprosate calcium, reference compound]
inhibition at 100 µM [1]: 17.2%

C[C@@]12C(=O)OC(=O)[C@]1(C)[C@H]1CC[C@@H]2O1 [cantharidin]
inhibition at 100 µM [1]: 26.8%

O=c1c(O)c(-c2ccccc2)oc2ccccc12 [3-Hydroxyflavone, 3-hydroxyflavone]
inhibitory effect on ColA (in words): low impact on the enzyme activity
inhibition at 1 µM [3]: -13.4 ± 2.7%
inhibition at 5 µM [3]: -17 ± 5.1%
inhibition at 10 µM [3]: 17.4 ± 4.5%
inhibition at 50 µM [3]: 25.1 ± 6.8%
inhibition at 100 µM [3]: 31 ± 4.3%
inhibition at 100 µM [1]: 27.6%

O=C(O)/C=C/c1ccc(O)c(O)c1 [caffeic acid]
inhibitory effect on ColA (in words): low effects
inhibition at 100 µM [1]: -3.8%

O=C(O)c1cc(O)c(O)c(O)c1 [gallic acid]
inhibition at 100 µM [1]: -21.4%

O=C(/C=C/c1ccccc1)c1ccccc1O [2′-Hydroxychalcone, 2′-hydroxychalcone]
inhibitory effect on ColA (in words): potent inhibitory effect
Inhibition (%) on ColA (100 µM, mean ± SD of three replications (five-dose assay)): Almost complete inhibition
inhibition at 1 µM [3]: -12.1 ± 0.2%
inhibition at 5 µM [3]: 1.2 ± 0.9%
inhibition at 10 µM [3]: 6.5 ± 1.3%
inhibition at 50 µM [3]: 21.8 ± 1.2%
inhibition at 100 µM [3]: 97.3 ± 1.3%
inhibition at 100 µM [1]: 87.8%

NC(=O)NCCC[C@H](N)C(=O)O [Citrulline, citrulline]
inhibition at 1 µM [3]: -4.3 ± 3.5%
inhibition at 5 µM [3]: -14.1 ± 1.4%
inhibition at 10 µM [3]: 27.8 ± 3%
inhibition at 50 µM [3]: 24.3 ± 1.7%
inhibition at 100 µM [3]: 7.2 ± 0.5%
inhibition at 100 µM [1]: 6.8%

C[C@H](CS)C(=O)N1CCC[C@H]1C(=O)O [captopril, reference compound]
inhibition at 100 µM [1]: 5.2%

O=C(/C=C/c1ccc(O)c(O)c1)O[C@@H]1C[C@](O)(C(=O)O)C[C@@H](O)[C@H]1O [chlorogenic acid]
inhibition at 100 µM [1]: 4.8%

Cc1ccc(S(=O)(=O)NC(N)=O)cc1 [4-methylphenylsulfonylurea]
inhibition at 100 µM [1]: 19.6%

CC1(C)[C@H](C(=O)O)N2C(=O)C[C@H]2S1(=O)=O [sulbactam, reference compound]
inhibition at 100 µM [1]: -10.7%

COc1ccc(-c2oc3ccccc3c(=O)c2O)cc1 [4'-methoxyflavonol, 4′-methoxyflavonol]
inhibition at 100 µM [1]: 3.7%

COc1ccc(-c2coc3cc(OC)ccc3c2=O)cc1 [daidzein dimethyl ether]
Inhibition (%) on ColA [4]: 15.7%

Oc1cc(O)nc(S)n1 [4,6-dihydroxy-2-mercaptopyrimidine]
inhibition at 100 µM [1]: -7.2%

CC(NS(=O)(=O)c1cccc(Cl)c1)C(=O)O (racemic) [N-(3-chlorophenylsulfonyl)-DL-alanine]
inhibition at 100 µM [1]: -19.2%

N[C@@H](CS)C(=O)O [cysteine]
inhibition at 100 µM [1]: 1.7%

O=C1C=C(O)C(=O)c2ccccc21 [lawsone]
inhibition at 100 µM [1]: -6.1%

C[C@]1(Cn2ccnn2)[C@H](C(=O)O)N2C(=O)C[C@H]2S1(=O)=O [tazobactam, reference compound]
inhibition at 100 µM [1]: 18.7%

O=C1c2ccccc2C(=O)c2c(O)ccc(O)c21 [1,4-dihydroxyanthraquinone]
inhibition at 100 µM [1]: 3.2%

NS(=O)(=O)c1cc2c(cc1C(F)(F)F)NC(Cc1ccccc1)NS2(=O)=O (stereo not drawn) [bendroflumethiazide, reference compound]
inhibition at 100 µM [1]: 21.6%

COc1cc(CNC(=O)CCCC/C=C/C(C)C)ccc1O [Capsaicin, capsaicin, reference compound]
IC50 (in words): nanomolar range
Inhibition (%) on ColA (1 µM, mean ± SD of three replications, 1 µM): 94.8 ± 0.8%
Inhibition (%) on ColA (1 µM, mean ± SD of three replications, listed as capsaicin, 1 µM): Almost complete inhibition
Inhibition (%) on ColA [2]: 100.5 ± 0.8%
Inhibition (%) on ColA [4]: 87.9%

O=C(O)C1=C[C@@H](O)[C@@H](O)[C@H](O)C1 [shikimic acid]
inhibition at 100 µM [1]: -0.2%

NC(=O)NCCC[C@H](NC(=O)OCC1c2ccccc2-c2ccccc21)C(=O)O [Fmoc-L-citrulline]
Inhibition (%) on ColA [4]: 20.8%

Cc1cc(NC(=O)C2=C(O)c3ccccc3S(=O)(=O)N2C)no1 [isoxicam, reference compound]
inhibition at 100 µM [1]: -10.1%

O=c1cc(-c2ccc(O)cc2)oc2cccc(O)c12 [4′,5-Dihydroxyflavone, 4′,5-dihydroxyflavone]
IC50 (in words): nanomolar range
inhibitory effect on ColA (in words): potently inhibits its activity
Inhibition (%) on ColA [2]: Almost complete inhibition
inhibition at 1 µM [3]: -48 ± 3.6%
inhibition at 5 µM [3]: 101.6 ± 0.6%
inhibition at 10 µM [3]: 107.5 ± 1%
inhibition at 50 µM [3]: 101 ± 1.9%
inhibition at 100 µM [3]: 105 ± 2.9%
inhibition at 100 µM [1]: 15%

CCOC(=O)[C@H](CCCNC(=N)N)NC(=O)c1ccccc1.Cl [benzoyl-L-arginine ethyl ester hydrochloride]
Inhibition (%) on ColA [4]: -6.6%

C[C@H](N)C(=O)O [L-alanine]
inhibition at 100 µM [1]: 3.1%

From article PMC9781087, “Discovery of New Microbial Collagenase Inhibitors” (Life, 2022)
